Experimental data published in patent publication US20140005255A1, “Agonists Of Toll Like Receptor For Treating Cardiovasuclar Disease And Obesity” (priority 2010, published 2014).

Key:
AthSMC and AoSMC [1] = test: TLR3 gene expression by Q-PCR in stimulated SMC; type: cell-based, human; details: 5 hours
Protocol: Alternatively, AoSMc and AthSMC were stimulated with 25 μg/ml Poly(I:C) or interferon α (IFN α) at 10 ng/mL or IFNy at 10 ng/mL. Total RNA was extracted as before and TLR3 gene expression was quantified via Q-PCR with TaqMan® Gene Expression Assays (Hs01551078_m1*; Applied Biosystems Inc.).

C57BL/6 mice = test: Gene expression in aortas and lymphoid tissues after chronic Poly(I:C) stimulation for 3 weeks; type: in vivo; details: chronic stimulation 3 weeks
Source text: FIG. 10 Gene expression of anti-inflammatory factors is increased in aortas and lymphoid tissues in C57BL/6 mice treated with Poly(I:C) Aortas, spleens and para-aortic lymph nodes (PALN) of C57BL/6 mice that underwent carotid artery injury and PBS or Poly(I:C) treatment were collected at sacrifice. RNA was extracted and gene expression of CCL5, IFNβ, PD-L1, PD-L2, and IL-10 in the aorta (A), spleen (B) and PALN(C) was examined by RT-PCR. Bars show overall mean±SEM (n=4 mice per group, *p<0.05, **p<0.01 PBS v. Poly(I:C); unpaired student's t-test). Abbreviations: IFNβ: Interferon beta, IL-10: Interleukin-10, PD-L1: programmed death-ligand 1, PD-L2: programmed death-ligand 2.
(§1) At 22 weeks of age, male C57BL/6 and TLR3^−/− mice were anesthetized with isofluorane by inhalation, the left carotid artery dissected and a non-occlusive tygon collar (length 2.5 mm; internal bore diameter, 510 μm, Cole-Parmer, London, UK) placed around the carotid artery. Mice received 250 μg Poly(I:C) (Sigma, Dorset, UK) or PBS intraperitoneally on alternate days for a total of 8 doses starting 4 days after surgery. Twenty-one days following collar placement, mice were euthanized, and neointima development and the presence of elastic lamina breaks were assessed as described below.
(§2) Total RNA was isolated from murine tissues using the Qiagen RNeasy kit (Qiagen, Crawley, UK) according to the manufacturer's instructions. Total RNA was treated with DNase I and reverse-transcribed to cDNA using M-MLV Reverse Transcriptase RNase H-, Point Mutant (Promega, UK) and oligo(dT) primer. RT-PCR was performed using TaqMan Gene Expression Assays (CCL5 (Mm01302427_m1), VCAM1 (Mm01320970_m1), CCL2 (Mm00441242_m1), TLR3 (Mm01207403_m1), IL-10 (Mm01288386_m1), PD-L1 (Mm00452054_m1*), PD-L2 (Mm00451734_m1*) IFNβ (Mm00439552_s1*), (Applied Biosystems) and TaqMan universal PCR Master Mix (Applied Biosystems) on a 7900HT Fast Real-Time PCR System (Applied BioSystems). PCR amplification was carried out for 40 cycles. Samples were normalized to β-actin. The 2-ΔΔCt method was used to analyze the relative changes in gene expression.

[2] = test system: C57BL/6, ApoE−/− and TLR3−/− mice; test: Vascular gene expression (quantitative RT-PCR) 24 hours after a single i.p. dose of Poly(I:C); type: in vivo
Protocol: FIG. 2 Aortic gene expression of both pro- and anti-inflammatory factors is induced by Poly(I:C) stimulation. 10- and 30-week old C57BL/6, ApoE−/− and TLR3−/− mice were stimulated with PBS or 250 μg Poly(I:C) in PBS. 24 hours post-stimulation, mice were sacrificed, aortas harvested and RNA extracted. Gene expression of CCL5 (A), IL-10 (B), VCAM-1 (C) and IFNβ (D) was examined by quantitative RT-PCR. Bars show overall mean±SEM (n=3-5 mice per group; *p<0.05, **p<0.01, ***p<0.001 PBS v. Poly(I:C); unpaired student's t-test).
as §2

C57BL/6 and TLR3−/− mice = test: Perivascular collar injury: neointima formation (intima/media ratio); type: in vivo
Protocol: as §1
Twenty days following collar placement, mice were euthanized, terminal blood collected via cardiac puncture and the vasculature perfused with 0.9% saline. Injured carotids were dissected out and frozen at −80° C. in Optimal cutting temperature (OCT) compound (ThermoScientific, Runcorn, UK). Sham-operated contralateral arteries were used as controls. Mice were fed regular chow throughout the duration of the experiment.
For the injured carotid artery, serial 5 μm cryosections were taken of the carotid tissue distal to the collar. Five sections were collected on each slide and 15 to 25 slides were collected per arterial segment. The first five alternate slides were stained with Accustain elastic stain kit (Sigma) according to manufacturer's instructions. Measurement of lesion and vessel areas was performed on one section per stained slide using ProgRes CapturePro image analysis software (version 2.5.2.0, Jenoptik, Germany). The area between the internal and external elastic […] was taken as the medial area and the intimal area was calculated by subtracting the lumen area from the internal elastic lamina area. The intimal medial ratio (IMR) was then calculated by dividing the intimal area by the medial area. The IMR measurements were then averaged for each mouse.

TLR3−/− mice = test: Perivascular collar injury: elastic lamina breaks; type: in vivo; details: systemic administration 250 μg i.p.
Protocol: as §1
Elastin-stained slides were also used to assess the integrity of the elastic laminae. The portion of the carotid artery distal to the collar (the same as used for neointima assessment) was divided into 5 segments and representative sections from each segment were evaluated for the presence of interruptions in the elastic lamina. The width of any observed break was measured by drawing a line between the start and end of a break in the external elastic lamina using ProgRes CapturePro image analysis software (version 2.5.2.0, Jenoptik). The width of any elastic lamina break was calculated as the mean width of break across all sections examined for each mouse. […]

AthSMC and AoSMC [3] = test: Atherosclerosis RT2 Profiler PCR Array gene expression in SMC stimulated with Poly(I:C) for 5 hours; type: cell-based, human; details: 25 μg/ml
Protocol: SMCs were plated in 9.6 cm^2 dishes and grown until near confluence. SMCs were serum starved for 24 h prior to stimulation with 25 μg/ml Poly(I:C) for 5 hours. Total cellular RNA was extracted from SMC using RNeasy® Mini Kit (Qiagen) according to the manufacturer's instructions. To remove any residual genomic DNA, RNA samples were treated with DNase (TurboDNase, Ambion) according to manufacturer's instructions. RNA was reverse transcribed to cDNA using M-MLV Reverse Transcriptase (Promega, UK). Quantitative PCR (QPCR) analysis of 84 atherosclerosis related genes was performed using Atherosclerosis RT2 Profiler PCR Arrays (SA Bioscience Corporation, USA) as per the manufacturer's protocol. The complete list of the genes analyzed is available online at http://www.sabiosciences.com/rt_per_product/HTML/PAHS-038A.html. RT2 Profiler PCR arrays were run on an ABI 7900HT machine (Applied Biosystems). Duplicate arrays were run per condition for unstimulated and Poly (I:C)-stimulated AoSMC and AthSMC. Data analysis was performed using the manufacturer's integrated web-based software package for the PCR Array System using Ct based fold-change calculations.

[4] = test system: human atheroma-derived smooth muscle cells (AthSMC); test: Cytokine production (ELISA) by SMC stimulated with TLR agonists for 24 hours, AthSMC compared to AoSMC; type: cell-based; details: 24 hours stimulation
Protocol: AthSMC were isolated from the mixed atheroma cells via magnetic cell sorting (Miltenyi, MACS), utilizing anti-CD45 (pan-leukocyte marker) and anti-CD31 (endothelial cells) antibodies coupled to microbeads. SMC expressing SMC-alpha actin composed >90% of the cells. Control AoSMC were purchased from Promocell (Germany). Both SMC types were grown in SMC medium (Promocell, Germany) and used at passage 3 consistently in all experiments. The protocols of stimulation with TLR ligands are described below.
SMC were cultured in 50 cm^2 tissue culture dishes and grown until near confluence. AthSMC and AoSMC were serum starved for 24 hours and then cultured in DMEM either alone or in the presence of 10 ng/ml IL1a, 100 ng/ml Pam3Cys, 100 ng/ml FSL-1 (Pam2CGDPKHPKSF), 25 μg/ml Poly(I:C), 100 ng/ml Lipopolysaccharide (LPS), 1 μg/ml R837 (Imiquimod) and 1 μg/ml PolyU (all purchased from Invivogen). Cells were serum starved for 24 h prior to stimulation with the indicated agonists. Supernatants were collected 24 hours after stimulation and frozen at −80° C. for batch analysis via ELISA. In the experiments performed on the mixed human atheroma cell culture, cells were cultured immediately after isolation at 10^6 cells per milliliter in RPMI containing 5% fetal bovine serum (Biosera, UK) in the presence or absence of 25 μg/ml Poly(I:C), 1 μM CpG ODN2006 and 1 μM CpG ODN2006 control (Invivogen) for 24 and 48 hours. The concentrations used were selected on the basis of dose-response experiments as the dose with maximal effect in absence of cell death monitored via MTT.
(§3) Cytokine production in supernatants of AthSMC and AoSMC were measured by ELISA using IL-6, IL-8 and CCL2/MCP-1 (Pharmingen, UK). IFNα was detected via a high sensitivity ELISA kit from R&D Systems. Each condition was tested in triplicate and each triplicate was analyzed separately. Concomitantly, viability was monitored with the use of 3-(4,5-dimethyl[…])-2,5-diphenyltetrazolium (MTT) (Sigma, UK).

[5] = test system: mixed human atheroma cell culture; test: IFNα production (ELISA) in mixed cell type atheroma cell culture; type: cell-based; details: 1 μM, 24 hours
Protocol: Carotid endarterectomies from patients undergoing surgery for carotid disease were obtained at Charing Cross Hospital, London. The protocol was approved by the Research Ethics Committee RREC2989. All patients gave written informed consent, according to the Human Tissue Act 2004 (UK). Single cell suspensions of mixed cell types were obtained via enzymatic digestion and cultured for 24 hours as previously described (18).
SMC were cultured in 50 cm^2 tissue culture dishes and grown until near confluence. AthSMC and AoSMC were serum starved for 24 hours and then cultured in DMEM either alone or in the presence of 10 ng/ml IL1a, 100 ng/ml Pam3Cys, 100 ng/ml FSL-1 (Pam2CGDPKHPKSF), 25 μg/ml Poly(I:C), 100 ng/ml Lipopolysaccharide (LPS), 1 μg/ml R837 (Imiquimod) and 1 μg/ml PolyU (all purchased from Invivogen). […] The concentrations used were selected on the basis of dose-response experiments as the dose with maximal effect in absence of cell death monitored via MTT.
as §3

TLR8 = details: cited from earlier work
[6] = single dose 250 μg i.p., 24 hours
[7] = Poly(I:C) 25 μg/ml, FSL-1 100 ng/ml

Polyriboinosinic-polycytidylic acid [Poly(I:C)]
TLR3 gene expression (AthSMC and AoSMC [1]; AoSMC, 25 μg/ml): not in AoSMC
TLR3 gene expression (AthSMC and AoSMC [1]; AthSMC, 25 μg/ml): able to upregulate the expression of TLR3
Expression of CCL5 in the aorta (C57BL/6 mice): significantly increased
Expression of IFNβ in the aorta (C57BL/6 mice): significantly increased
Expression of IFNβ mRNA in the spleen (C57BL/6 mice): induced
Expression of IL10 in the aorta (C57BL/6 mice): significantly increased
Gene expression of PD-L1 in the para-aortic lymph nodes (C57BL/6 mice): induced
Gene expression of PD-L2 in the para-aortic lymph nodes (C57BL/6 mice): induced
Gene induction in aorta of ApoE−/− mice with advanced disease compared to young ApoE−/− ([2]; 30-week vs 10-week old ApoE−/− mice): more pronounced
Gene induction in carotid artery tissue compared to aorta ([2]; CCL5, CCL2, VCAM1, single dose 250 μg): even more marked
Expression of the induced genes in TLR3−/− mice ([2]; TLR3−/− mice, single dose 250 μg): almost abrogated
A20 induction ([2]; mice, single dose 250 μg i.p.): A20 induction was not observed
Aortic expression of CCL2/MCP-1 [2, 6]: induced the aortic expression
Aortic expression of CCL5/RANTES [2, 6]: induced the aortic expression
Aortic expression of IFNβ [2, 6]: induced the aortic expression
Aortic expression of IL-10 [2, 6]: induced the aortic expression
Aortic expression of PD-L2 [2, 6]: induced the aortic expression
Aortic expression of VCAM-1 [2, 6]: induced the aortic expression
TLR3 gene expression in vascular tissues (aorta, carotid arteries) ([2]; single dose 250 μg, 24 hours): up-regulated TLR3 gene expression
Neointima formation, intima/media ratio, compared to vehicle (C57BL/6 and TLR3−/− mice; C57BL/6 mice, 250 μg i.p., 21 days after injury, p<0.001): significantly reduced
Protection against neointima formation (C57BL/6 and TLR3−/− mice; TLR3−/− mice, 250 μg i.p., p>0.05): ablated
End-weight of mice (C57BL/6 and TLR3−/− mice; all groups, Poly(I:C) or vehicle): No difference
Elastic lamina breaks (frequency, depth and width) (TLR3−/− mice): reduced the frequency, depth and width of the elastic lamina breaks
Expression of selected genes of inflammatory cell recruitment (e.g. VCAM1, CCL5) and regulation of inflammation (e.g. A20, BIRC3/cIAP) (AthSMC and AoSMC [3]): significantly increased the expression
TLR3 dependent response in AthSMC compared to AoSMC (fold change in IL-6 production, FIG. 1B) ([4]; 25 μg/ml): over 40 fold
CCL2/MCP-1 expression, AthSMC compared to AoSMC [4, 7]: enhanced expression
IL-6 expression, AthSMC compared to AoSMC [4, 7]: enhanced expression
IL-8 expression, AthSMC compared to AoSMC [4, 7]: enhanced expression

CpG ODN2006
IFNα production [5]: Type I interferons are produced in the mixed cell culture population in response to TLR9 stimulation

IFNα
TLR3 gene expression (AthSMC and AoSMC [1]; AoSMC and AthSMC, IFN 10 ng/mL): able to increase the expression of TLR3

CCCc1nc2c(N)nc3ccccc3c2s1 [CL075]
Agonist strength for TLR8 relative to TLR7 (TLR8): ~10 ×

FSL-1
IL-6 expression, AthSMC compared to AoSMC [4, 7]: enhanced response
IL-8 expression, AthSMC compared to AoSMC [4, 7]: enhanced response

CCCCNc1nc(N)c2[nH]c(=O)n(Cc3ccc(C(=O)NCC(=O)O)cc3)c2n1 [CL264]
TLR8 activation / stimulation (TLR8; CL264: even at high concentrations (>10 mg/ml)): does not stimulate TLR8
